Legend:
[1] = tested on: IL-6 secretion in senescent cells; test: IL-6 ELISA on conditioned media of IR-induced senescent cells treated with COX-2/ALOX5 inhibitors; assay type: cell-based, human; details: SEN(IR) IMR-90, inhibitor for 10 days
Experimental: (§1) Human fetal lung fibroblasts (IMR-90) were cultured in Dulbecco's modified eagle medium (DMEM) supplemented with 10% FBS and penicillin/streptomycin. LL 29 (AnHa) cells were obtained from the ATCC and growth to confluence using the ATCC protocol, but were subcultured as described for IMR-90 before initiation of all experiments. Quiescence was induced by replacing culture media with media containing 0.2% FBS. MCF-7 and MDA-MB-231 breast cancer cells were cultured in RPMI supplemented with 10% FBS and penicillin/streptomycin. All cells were cultured at 3% O2, and used between 25 and 40 population doublings. All cells were mycoplasma free.
Senescence was induced by irradiation with 10 Gy of ionizing radiation. Non-senescent controls (proliferating or quiescent) were placed in the irradiator for an identical period of time without turning on the irradiator. Oncogene-induced senescence was induced via lentiviral overexpression of HRAS^V12, as described previously (Wiley et al. (2016) Cell Metab. 23: 303-314).
3×10^4 cells in 12-well plates were treated as indicated in the text, and cultured in 0.5-1 ml serum-free DMEM for 24 hr. CM were collected and clarified at 2,000×g for 10 min. Supernatants were transferred to a tube; cells were trypsinized and counted. CM (2.5 μl) were analyzed by bead-based ELISAs (AlphaLISA, Perkin-Elmer) as instructed by the manufacturer and normalized to cell number.

IMR-90 fibroblasts = assay type: cell-based, human
Experimental: as §1
RNA was extracted from cells or tissues using commercially available kits (Isolate II—Bioline for cells; Direct-zol—Zymo for tissues) according to the manufacturer's instructions. cDNA synthesis was performed using a High Capacity cDNA Reverse Transcription Kit (Thermo Fisher) according to the manufacturer's instructions. Quantitative PCR was performed on a LightCycler 480 II (Roche) using primers and probes designed for the Universal Probe Library. Primers and probes used for human transcripts were ACTB: 5′-CCAACCGCGAGAAGATGA (SEQ ID NO:1), 5′-TCCATCACGATGCCAGTG (SEQ ID NO:2), Probe #64; TUBA: 5′-cttcgtctccgccatcag (SEQ ID NO:3), 5′-ttgccaatctggacacca (SEQ ID NO:4), Probe #58; ALOX5: 5′-[…] (SEQ ID NO:5), 5′-[…] (SEQ ID NO:6), Probe #64; ALOX5AP: 5′-ggtctgcggggctacttt (SEQ ID NO:7), 5′-[…] (SEQ ID NO:8), Probe #18; ALOX12: 5′-[…] (SEQ ID NO:9), 5′-agccaggtcgtcaggag (SEQ ID NO:10), Probe #32; ALOX15: 5′-[…] (SEQ ID NO:11), 5′-[…] (SEQ ID NO:12), Probe #76; ALOX15B: 5′-[…] (SEQ ID NO:13), 5′-actgggaggcgaagaagg (SEQ ID NO:14), Probe #51; AKR1C1: 5′-catgcctgtcctgggattt (SEQ ID NO:15), 5′-[…] (SEQ ID NO:16), Probe #49; AKR1C2: 5′-ctatgcgcctgcagaggt (SEQ ID NO:17), 5′-[…] (SEQ ID NO:18), Probe #31; AKR1C3: 5′-[…] (SEQ ID NO:19), 5′-[…] (SEQ ID NO:20), Probe #78; CYSLTR2: 5′-[…] (SEQ ID NO:21), 5′-[…] (SEQ ID NO:22), Probe #18; DPEP1: 5′-gacgtcctgaggctggtg (SEQ ID NO:23), 5′-[…] (SEQ ID NO:24), Probe #9 (SEQ ID NO:25), ELOVL2: 5′-[…] (SEQ ID NO:26), 5′-[…] (SEQ ID NO:27), Probe #53; ELOVL4: 5′-catttggcccatggattc (SEQ ID NO:28), 5′-[…] (SEQ ID NO:29), Probe #31; ELOVL5: 5′-cccttccatgcgtccata (SEQ ID NO:30), 5′-[…] (SEQ ID NO:31), Probe #31; EPHX2: 5′-ttctgctggacaccctgaa (SEQ ID NO:32), 5′-[…] (SEQ ID NO:33), Probe #45; GPX4: 5′-ttcccgtgtaaccagttcg (SEQ ID NO:34), 5′-[…] (SEQ ID NO:35), Probe #36; LTA4H: 5′-ctgctctcacggtccagtc (SEQ ID NO:36), 5′-[…] (SEQ ID NO:37), Probe #64; LTBR2: 5′-[…] (SEQ ID NO:38), 5′-[…] (SEQ ID NO:39), Probe #33; LTC4S: 5′-[…] (SEQ ID NO:40), 5′-[…] (SEQ ID NO:41), Probe #18; PTGDS: 5′-[…] (SEQ ID NO:42), 5′-[…] (SEQ ID NO:43), Probe #36; PTGES: 5′-agagatgcctgcccacag (SEQ ID NO:44), 5′-tggccaccacgtacatctt (SEQ ID NO:45), Probe #4; PTGES2: 5′-[…] (SEQ ID NO:46), 5′-[…] (SEQ ID NO:47), Probe #49; PTGES3 (SEQ ID NO:48), 5′-[…] (SEQ ID NO:49), 5′-[…] (SEQ ID NO:50), Probe #48; PTGIS: 5′-[…] (SEQ ID NO:51), 5′-[…] (SEQ ID NO:52), Probe #45; PTGR1: 5′-atgatggggcagcaagtg (SEQ ID NO:53), 5′-cccatcagaaatggagtgc (SEQ ID NO:54), Probe #64; PTGS1: 5′-[…] (SEQ ID NO:55), 5′-gtggtggtccatgttcctg (SEQ ID NO:56), Probe #81; PTGS2: 5′-gatccccagggctcaaac (SEQ ID NO:57), 5′-[…] (SEQ ID NO:58), Probe #61; TBXAS1: 5′-[…] (SEQ ID NO:59), 5′-tgcctcccgtgtgaatct (SEQ ID NO:60), Probe #73; AREG: 5′-[…] (SEQ ID NO:61), 5′-[…] (SEQ ID NO:62), Probe #73; CCL2: 5′-AGTCTCTGCCGCCCTTCT (SEQ ID NO:63), 5′-GTGACTGGGGCATTGATTG (SEQ ID NO:64), Probe #40; CCL27: 5′-[…] (SEQ ID NO:65), 5′-gctgggtggcagtaggaat (SEQ ID NO:66), Probe #18; CXCL1: 5′-[…] (SEQ ID NO:67), 5′-[…] (SEQ ID NO:68), Probe #52; HGF: 5′-[…] (SEQ ID NO:69), 5′-[…]

CS(=O)(=O)c1ccc(-c2noc(C(F)(F)F)c2-c2ccccc2)cc1 [CAY-10404]
lowered IL-6 secretion in senescent cells [1]: ~70%
number of cells following irradiation (IMR-90 fibroblasts; 5 Gy IR, 10 days): significantly increased
cell number relative to DMSO-treated SEN(IR) cells (IMR-90 fibroblasts; SEN(IR) cells counted for IL-6 ELISA normalization): increase in cell number

Source: patent US20200371122A1, “BIOMARKER FOR SENESCENT CELLS” (Buck Institute for Research on Aging, priority 2017, published 2020)
